Data reported in patent US4675404A, “8-pyridazinylcarbamoyl ergolines” (Farmitala Carlo Erba S.p.A., priority 1981, dated 1987).
Where two headings read alike, the source gives them in different places.

Key:
[1] = system: reserpine-induced blepharospasm; test: antagonism to reserpine-induced blepharospasm; type: in vivo, male mice; conditions: Mus musculus, po, 3 h, read-out: Reserpine antagonism ED50, Blepharospasm
Method: (§1) The antidepressant activity of the ergoline derivatives according to the invention can be evaluated by antagonism to reserpine-induced blepharospasm and hypothermia.
(§2) The tests were performed in an air-conditioned room at a constant termperature of 19°±1° C. Randomized groups of male mice were respectively treated by gavage with appropriate screening doses (from a maximum of 25 mg/kg below) of the test compounds, suspended in the vehicle (Methocel 0.5%; 1 ml/100 g b.w.), or with the vehicle alone. One hour later the animals received an i.p. injection of reserpine (1.5 mg/kg; 1 ml/100 g b.w.), and one of the control groups the same volume of the vehicle alone (blank controls).
(§3) Three hours after pretreatments, i.e. two hours after reserpine or vehicle treatments, blepharospasm was evaluated in scores as proposed by Rubin et al. (J. Pharmacol. 120, 125 (1957)). Two hours after the above mentioned evaluation the rectal temperature of the animals was recorded by an appropriate probe connected to a digital thermometer (Ellab DU-3).

[2] = system: reserpine-induced hypothermia; test: antagonism to reserpine-induced hypothermia; type: in vivo, male mice; conditions: Mus musculus, po, 5 h; mice; p.o. by gavage 1 h before reserpine 1.5 mg/kg i.p.; rectal temperature 2 h after blepharospasm evaluation
Method: as §1, §2, §3

[3] = orientative acute toxicity; conditions: in vivo, po

| SMILES | ED50 [1] | ED50 [2] | LD50 [3] | ED50 ([1]; mice, p.o. by gavage 1 h before reserpine 1.5 mg/kg i.p., scored 2 h after reserpine) |
| --- | --- | --- | --- | --- |
| CN1C[C@H](C(=O)Nc2nccs2)C[C@@H]2c3cccc4c3c(cn4C)C[C@H]21 [1,6-dimethyl-8β-(2-thiazolyl-carbamoyl)-ergoline, reference compound] | 7 mg/kg | 15 mg/kg |  |  |
| Cc1[nH]c2cccc3c2c1C[C@@H]1[C@@H]3C[C@@H](C(=O)Nc2ccc(Cl)nn2)CN1C [Example 4, 2,6-dimethyl-8β-(6-chloro-3-pyridazinyl-carbamoyl)-ergoline] | 0.2 mg/kg | 0.6 mg/kg | > 300 mg/kg |  |
| C=CCN1C[C@H](C(=O)Nc2ccc(Cl)nn2)C[C@@H]2c3cccc4[nH]cc(c34)C[C@H]21 [Example 5, 6-allyl-8β-(6-chloro-3-pyridazinyl-carbamoyl)-ergoline] | 3.6 mg/kg | 4.5 mg/kg | > 600 mg/kg |  |
| C=CCN1C[C@H](C(=O)Nc2nccs2)C[C@@H]2c3cccc4[nH]cc(c34)C[C@H]21 [Example 6, 6-allyl-8β-(2-thiazolyl-carbamoyl)-ergoline] | 2.5 mg/kg | 4 mg/kg | > 300 mg/kg |  |
| CCCN1C[C@H](C(=O)Nc2nccs2)C[C@@H]2c3cccc4[nH]cc(c34)C[C@H]21 [Example 7, 6-propyl-8β-(2-thiazolyl-carbamoyl)-ergoline] | 0.5 mg/kg | 0.6 mg/kg | > 300 mg/kg |  |
| Cc1nnc(NC(=O)[C@@H]2C[C@@H]3c4cccc5[nH]cc(c45)C[C@H]3N(C)C2)s1 [Example 10, 6-methyl-8β-[2-(5-methyl-1,3,4-thiadiazolyl)-carbamoyl]-ergoline] | 3.5 mg/kg | 3.1 mg/kg | > 600 mg/kg |  |
| Cc1nnc(NC(=O)[C@@H]2C[C@@H]3c4cccc5[nH]c(C)c(c45)C[C@H]3N(C)C2)s1 [Example 16, 2,6-dimethyl-8β-[2-(5-methyl-1,3,4-thiadiazolyl)-carbamoyl]-ergoline] | 1 mg/kg | 1.7 mg/kg | > 800 mg/kg |  |
| CN(C)CCCN1c2ccccc2CCc2ccccc21 [Imipramine, reference compound] |  | 18.2 mg/kg |  | 8.1 mg/kg |
